Our source for the EC50 values is patent US12673954B2 (BRISTOL-MYERS SQUIBB COMPANY, priority 2021, dated 2026).

SMILES strings stand for the structures. Read-outs that look alike come from different tables or passages of the source. A value given as a limit tells only on which side of the number the result lay.

Assay [1] deals with IRF pathway, THP1-Dual™ cells. The assay is described as follows: STING reporter assay in THP1-Dual cells, IRF pathway (Lucia luciferase, QUANTI-Luc). The assay is classed as cell-based, human. Conditions: read-out: IRF (EC50 μM). From the text:
(§1) THP1-Dual™ cells were derived from the human THP-1 monocyte cell line by stable integration of two inducible reporter constructs. To this end, THP1-Dual™ cells allow the simultaneous study of the NF-κB pathway, by monitoring the activity of SEAP, and the IRF pathway by assessing the activity of a secreted luciferase (Lucia). Both reporter proteins are readily measurable in the cell culture supernatant when using QUANTI-Blue™, a SEAP detection reagent, and QUANTI-Luc™, a luciferase detection reagent.
(§2) THP1-Dual™ cells induce the activation of NF-κB in response to STING agonists. They also trigger the IRF pathway upon stimulation with STING agonists, such as cGAMP. Here, the THP-1-Dual cells were used to assess STING specific binders for function on the cellular level.
(§3) Serial dilutions of compounds in DMSO were added to low volume 384 well plates at 100 nl/well using an ECHO acoustic dispenser (Labcyte, model 550) to achieve final starting concentration of 100 μM in cell suspension. […] One column of the plate was reserved for treatment with cGAMP at 100 μM for 100% activation calculation and one column for no treatment (DMSO only) for baseline activation. Plates were then incubated in 37° C. incubator at 5% CO2 for 20 hours.
(§4) Plates were read on the Envision (Perkin Elmer) at 620 nm wavelength (OD620). In the luciferase assay, 5 μl of Quantiluc (Invivogen, Rep-qlc2) is added to white 384 well plates seeded with THP1 cells and read at 5 minutes on the Envision (Perkin Elmer) using a luminescence protocol (RLU). 100% activation was determined by value (RLU) of THP-1 Dual STING cells stimulated with 100 μM cGAMP (Invivogen, cat #TLRL-NACGA23-5).
In general terms: In a reporter assay the amount or activity of a reporter protein is the signal.

In assay [2] the test system is NF-κB pathway, THP1-Dual™ cells. The assay is described as follows: STING reporter assay in THP1-Dual cells, NF-κB pathway (SEAP, QUANTI-Blue). Conditions: read-out: NFkB (EC50 μM). It counts as cell-based, human.
Source text: as §1, §2, §3, §4

The mark [3] stands for this setting: Homo sapiens, THP1-Dual, 20 h, THP1-Dual cells, 10% human plasma, 20 hours, Lucia luciferase, 100% activation = 100 μM cGAMP.
Setting [4] is: Homo sapiens, THP1-Dual, 20 h, THP1-Dual cells, 10% human plasma, 20 hours, SEAP, 100% activation = 100 μM cGAMP.
Where [5] appears, read: THP1-Dual cells, 10% human plasma, 20 hours, Lucia luciferase, 100% activation = 100 μM cGAMP.
[6] abbreviates: THP1-Dual cells, 10% human plasma, 20 hours, SEAP, 100% activation = 100 μM cGAMP.

By EC50 is commonly meant the midpoint of the concentration-response curve. `CSC(=O)c1cc(Cl)cc2c(Cl)c([C@H](C)NC(=O)c3cnn4cccnc34)oc12` [EXAMPLE 402]: the concentration for a half-maximal effect (EC50) in assay [1] (setting [3]) and in assay [2] (setting [4]) was 2.4 µM in each case.

As for `CCC(C)OC(=O)c1cccc2cc(CN3CCc4ccncc4C3=O)oc12` (racemic) [EXAMPLE 208, Sec-butyl 2-((1-oxo-3,4-dihydro-2,7-naphthyridin-2(1H)-yl)methyl)benzofuran-7-carboxylate], the EC50 in assay [1] (setting [3]) came to 33 µM; in assay [2] (setting [4]), 31 µM.

Consider `COC(=O)c1cc(Cl)cc2c(Cl)c(CNC(=O)c3cncc4cccnc34)oc12` [EXAMPLE 113, methyl 2-((1,6-naphthyridine-8-carboxamido)methyl)-3,5-dichlorobenzofuran-7-carboxylate], for which the concentration giving a half-maximal response (EC50) in assay [1] (setting [3]) came to 0.32 µM; in assay [2] (setting [4]), 0.51 µM.

As for `COC(=O)Cc1cc(F)cc2cc(CNC(=O)c3cnn4cccnc34)oc12` [Example 47, Methyl 2-(5-fluoro-2-((pyrazolo[1,5-a]pyrimidine-3-carboxamido)methyl)benzofuran-7-yl)acetate], the concentration giving a half-maximal response (EC50) in assay [1] (setting [3]) is 6.7 µM; in assay [2] (setting [4]) it was 8.5 µM.

As for `C[Si](C)(C)CCSC(=O)c1cc(F)cc2c(Cl)c(CNC(=O)c3cnn4cccnc34)oc12` [EXAMPLE 392, S-(2-(Trimethylsilyl)ethyl) 3-chloro-5-fluoro-2-((pyrazolo[1,5-a]pyrimidine-3-carboxamido)methyl)benzofuran-7-carbothioate], the concentration giving a half-maximal response (EC50) in assay [1] (Homo sapiens, THP1-Dual, 20 h) came to 3.4 µM; in assay [2] (Homo sapiens, THP1-Dual, 20 h), 2.7 µM.

`Cc1cc(C(=O)O[C@H](C)C(F)(F)F)c2oc(CNC(=O)c3cnn4cccnc34)cc2c1` [EXAMPLE 271, (R)-1,1,1-Trifluoropropan-2-yl 5-methyl-2-((pyrazolo[1,5-a]pyrimidine-3-carboxamido)methyl)-benzofuran-7-carboxylate]: the values for the EC50 in assay [1] (setting [3]) and in assay [2] (setting [4]) were 0.8 µM and 0.91 µM, respectively.

`O=C(NCC(F)(F)F)c1cc(Cl)cc2cc(CNC(=O)c3cnn4cccnc34)oc12` [EXAMPLE 403, N-((5-Chloro-7-((2,2,2-trifluoroethyl)carbamoyl)benzofuran-2-yl)methyl)pyrazolo[1,5-a]pyrimidine-3-carboxamide]: the values for the 50% effective concentration (EC50) in assay [1] (setting [3]) and in assay [2] (setting [4]) were over 100 µM and 97 µM, respectively.

For the compound `COc1ccn2ncc(C(=O)NCc3cc4cc(Cl)cc(C(=O)O)c4o3)c2n1` [EXAMPLE 139, 5-Chloro-2-((5-methoxypyrazolo[1,5-a]pyrimidine-3-carboxamido)methyl)benzofuran-7-carboxylic acid], the EC50 in assay [1] (setting [3]) was 90 µM; in assay [2] (setting [4]), over 100 µM.

With `COC(=O)c1cc(C)cc2cc(CN3CCc4ccncc4C3=O)oc12` [Example 87, Methyl 5-methyl-2-((1-oxo-3,4-dihydro-2,7-naphthyridin-2(1H)-yl)methyl)benzofuran-7-carboxylate], the values for the EC50 in assay [1] (setting [3]) and in assay [2] (setting [4]) were 5.5 µM and 5.8 µM, respectively.

With `COC(=O)c1cc(Cl)cc2cc(CNC(=O)c3cncc(Cl)n3)oc12` [Example 61, Methyl 5-chloro-2-((6-chloropyrazine-2-carboxamido)methyl) benzofuran-7-carboxylate], the half-maximal effective concentration (EC50) in assay [1] (setting [5]) and in assay [2] (setting [6]) was 21 µM in each case.

For `Cc1cc(C(=O)O)c2oc(CNC(=O)c3cncc4cccnc34)c(Cl)c2c1` [EXAMPLE 178, 2-((1,6-naphthyridine-8-carboxamido)methyl)-3-chloro-5-methylbenzofuran-7-carboxylic acid], the EC50 in assay [1] (setting [3]) was found to be 42 µM; in assay [2] (setting [4]), 50 µM.

As for `COC(=O)c1cc(Cl)cc2cc(CNC(=O)c3cnn4ccc(OC)nc34)oc12` [Example 51, Methyl 5-chloro-2-((5-methoxypyrazolo[1,5-a]pyrimidine-3-carboxamido)methyl) benzofuran-7-carboxylate], the concentration for a half-maximal effect (EC50) stood at 4 µM in assay [1] (setting [5]) and 3.1 µM in assay [2] (setting [6]).

For the compound `CSC(=O)c1cc(C)cc2cc(CNC(=O)c3cnn4cccnc34)oc12` [EXAMPLE 391, S-Methyl 5-methyl-2-((pyrazolo[1,5-a]pyrimidine-3-carboxamido)methyl)benzofuran-7-carbothioate], the EC50 in assay [1] (setting [3]) was found to be 0.75 µM; in assay [2] (setting [4]), 0.61 µM.

As to `O=C(OCC(F)(F)C(F)(F)CO)c1cc(Cl)cc2cc(CNC(=O)c3cnn4cccnc34)oc12` [EXAMPLE 251, 2,2,3,3-Tetrafluoro-4-hydroxybutyl 5-chloro-2-((pyrazolo[1,5-a]pyrimidine-3-carboxamido)methyl)benzofuran-7-carboxylate], the results for the concentration for a half-maximal effect (EC50) in assay [1] (setting [3]) and in assay [2] (setting [4]) were 0.93 µM and 1 µM, respectively.

On to `COC(=O)c1ccc(C)c2cc(CN3CCc4ccncc4C3=O)oc12` [EXAMPLE 28, Methyl 4-methyl-2-((1-oxo-3,4-dihydro-2,7-naphthyridin-2(1H)-yl)methyl)benzofuran-7-carboxylate], for which the concentration for a half-maximal effect (EC50) in assay [1] (setting [3]) turned out to be 3.1 µM; in assay [2] (setting [4]), 3.6 µM.

Consider `Cc1cc(C(=O)OCC(F)(F)F)c2oc(Cn3ccc4ccncc4c3=O)cc2c1` [EXAMPLE 375, 2,2,2-Trifluoroethyl 5-methyl-2-((1-oxo-2,7-naphthyridin-2(1H)-yl)methyl) benzofuran-7-carboxylate], for which the 50% effective concentration (EC50) in assay [1] (setting [3]) is 2.6 µM; in assay [2] (setting [4]), 2.3 µM.

Consider `Cc1cc(C(=O)OC(CF)CF)c2oc(CNC(=O)c3cnn4cccnc34)c(Cl)c2c1` [EXAMPLE 302, 1,3-Difluoropropan-2-yl 3-chloro-5-methyl-2-((pyrazolo[1,5-a]pyrimidine-3-carboxamido)methyl)benzofuran-7-carboxylate], for which the EC50 in assay [1] (setting [3]) worked out at 0.43 µM; in assay [2] (setting [4]), 0.52 µM.

For the compound `COC(=O)c1cc(Cl)cc2cc(CNC(=O)c3cncc4[nH]c(C)nc34)oc12` [Example 71, Methyl 5-chloro-2-((2-methyl-3H-imidazo[4,5-c]pyridine-7-carboxamido)methyl)benzofuran-7-carboxylate], the EC50 in assay [1] (setting [3]) was found to be 24 µM; in assay [2] (setting [4]), 33 µM.

As for `COC(=O)c1cc(Cl)cc2cc(CNC(=O)c3[nH]nc4cccnc34)oc12` [Example 49, Methyl 2-((2H-pyrazolo[4,3-b]pyridine-3-carboxamido)methyl)-5-chlorobenzofuran-7-carboxylate], the values for the EC50 in assay [1] (setting [3]) and in assay [2] (setting [4]) were 71 µM and 93 µM, respectively.

As for `O=C(Cc1cc(F)cc2cc(CNC(=O)c3cnn4cccnc34)oc12)OCC(F)(F)F` [EXAMPLE 366, 2,2,2-Trifluoroethyl 2-(5-fluoro-2-((pyrazolo[1,5-a]pyrimidine-3-carboxamido)methyl)benzofuran-7-yl)acetate], the concentration giving a half-maximal response (EC50) in assay [1] (setting [3]) and in assay [2] (setting [4]) was 4 µM each time.

Take `O=C(OCC(F)(F)F)c1cccc2c(Cl)c(CNC(=O)c3cnn4cccnc34)oc12` [EXAMPLE 223, 2,2,2-Trifluoroethyl 3-chloro-2-((pyrazolo[1,5-a]pyrimidine-3-carboxamido)methyl)benzofuran-7-carboxylate]: the figures for the half-maximal effective concentration (EC50) in assay [1] (setting [3]) and in assay [2] (setting [4]) were 0.67 µM and 0.62 µM, respectively.

Take `Cc1cc(C(=O)O[C@H](C)C(F)(F)F)c2oc(C(C)NC(=O)c3cnn4cccnc34)cc2c1` (stereo partly drawn) [EXAMPLE 276, (R)-1,1,1-Trifluoropropan-2-yl 5-methyl-2-(1-(pyrazolo[1,5-a]pyrimidine-3-carboxamido)ethyl)benzofuran-7-carboxylate]: the half-maximal effective concentration (EC50) amounted to 3 µM in assay [1] (setting [3]) and 3.4 µM in assay [2] (setting [4]).

As for `O=C(OCC(F)(F)F)c1c(F)ccc2cc(CNC(=O)c3cnn4cccnc34)oc12` [EXAMPLE 286, 2,2,2-Trifluoroethyl 6-fluoro-2-((pyrazolo[1,5-a]pyrimidine-3-carboxamido)methyl)benzofuran-7-carboxylate], the EC50 in assay [1] (setting [3]) was determined as 2.7 µM; in assay [2] (setting [4]) it was 2.5 µM.

For the compound `COC(OC(=O)c1cc(F)cc2cc(CNC(=O)c3cnn4cccnc34)oc12)C(F)(F)F` (single isomer, unassigned) [EXAMPLE 320, 2,2,2-Trifluoro-1-methoxyethyl 5-fluoro-2-((pyrazolo[1,5-a]pyrimidine-3-carboxamido)methyl)benzofuran-7-carboxylate], the EC50 in assay [1] (setting [5]) and in assay [2] (setting [6]) was 1.4 µM each time.

`COC(=O)c1cc(C)cc2c(Cl)c(CNC(=O)c3cncc4cccnc34)oc12` [EXAMPLE 118, methyl 2-((1,6-naphthyridine-8-carboxamido)methyl)-3-chloro-5-methylbenzofuran-7-carboxylate]: the EC50 in assay [1] (setting [3]) came to 0.3 µM; in assay [2] (setting [4]), 0.37 µM.

Regarding `COC(=O)c1cc(F)cc2cc(CNC(=O)c3cnn4cccnc34)oc12` [EXAMPLE 35, Methyl 5-fluoro-2-((pyrazolo[1,5-a]pyrimidine-3 carboxamido)methyl)benzofuran-7-carboxylate], the results for the EC50 in assay [1] (setting [3]) and in assay [2] (setting [4]) were 0.53 µM and 0.77 µM, respectively.
